“Also recorded” adds a separate entry of the source.
System: MARC/lpr mice
Test: SLE mouse model (MARC/lpr mice)
Assay type: in vivo
Procedure: QRT-PCR analysis was performed to detect the expression levels of specific genes in lymph nodes, spleen and kidney. Total RNA was isolated from lymph nodes, spleen and kidneys of 16-week-old mice using TRI reagent (Sigma-Aldrich, Co.). RNA was applied to qRT-PCR based on SYBR green (Enzo Life Sciences, Inc., Farmingdale, N.Y., USA). The following primers for the marker gene were used: mTLR7, 5′-ATGTGGACACGGAAGAGACAA-3′(SEQ ID NO: 1) and 5′-GGT AAG GGT AAG ATT GGT G-3′(SEQ ID NO: 2); mTLR9, 5′-ATGGTTCTCCGTCGAAGGACT-3′ (SEQ ID NO: 3) and 5′-GAG GCT TCA GCT CAC AGG G-3′(SEQ ID NO: 4); mIL-6, 5′-GAGGATACCACTCCCAACAGACC-3′(SEQ ID NO: 5) and 5′-AAGTGCATCATCGTTGTTCATACA-3′(SEQ ID NO: 6); mMyd88, 5′-CACCTGTGTCTGGTCCATTG-3′(SEQ ID NO: 7) and 5′-CTGTTGGACACCTGGAGACA-3′(SEQ ID NO: 8); mIL-17, 5′-GCT CCA GAA GGC CCT CAG A-3′ (SEQ ID NO: 9) and 5′-AGC TTT CCC TCC GCA TTG A-3′(SEQ ID NO: 10); mGAPDH, 5′-CTCAACACGGGAAACCTCAC-3′ (SEQ ID NO: 11) and 5′-CGCTCCACCAACTAAGAACG-3′(SEQ ID NO: 12) (Bioneer, Daejeon, Korea). Quantified individual RNA expression levels were normalized to GAPDH and expressed as RNA expression levels relative to the corresponding wild-type mice.
The therapeutic potential of TAC5-a on systemic autoimmunity was further determined by intraperitoneally injecting 10 nmol/g (daily dosage) of TAC5-a (dissolved in 1% dimethylsulfoxide [DMSO]) into MARC/lpr mice for 11 days. This inhibitor clearly influenced mouse lymphatic proliferation. […] The production of anti-dsDNA autoantibodies was kept low (FIG. 6B), and serum antinuclear antibodies (ANAs) were reduced by treatment with inhibitors (FIG. 6C). The detection of certain proteins, such as albumin, in the urine serves as a marker for a kidney pathology called glomerulonephritis (GN), which is caused by inflammation of the glomerulus. […] Then, the effect of TAC5-a on the relative expression behaviors of specific genes in lymph nodes, spleen and kidneys at the transcription level was confirmed.

Nc1cccc(COc2cccnc2N)c1 [TAC5-a, 3-((3-aminobenzyl)oxy)pyridin-2-amine]
production of anti-dsDNA autoantibodies (10 nmol/g daily i.p. for 11 days, FIG. 6B): kept low | serum antinuclear antibodies (ANAs) (10 nmol/g daily i.p. for 11 days, FIG. 6C): reduced | content of urine albumin (10 nmol/g daily i.p. for 11 days, FIG. 6D): significantly reduced | lymph node swelling, appearance evaluation or size decrease (10 nmol/g daily intraperitoneally for 11 days, FIG. 6A): clearly observed; also recorded: significantly prevented | IL-6 mRNA level in lymph nodes (qRT-PCR) (FIGS. 6E to 6G): significantly reduced | IL-17 mRNA level in lymph nodes (qRT-PCR) (FIGS. 6E to 6G): significantly reduced | TLR7 mRNA level in lymph nodes (qRT-PCR) (FIGS. 6E to 6G): significantly reduced

Reference: US11629155B2, “Small molecule antagonist compound TAC5 series having toll-like receptor 3/7/8/9 inhibitory function” (AJOU UNIVERSITY INDUSTRY-ACADEMIC COOPERATION FOUNDATION, priority 2018, dated 2023)
